Experimental data published in US8716342B2, “Method for preparing molecular complexes between adapalene and cyclodextrins” (Galderma Research & Development, priority 2009, dated 2014).

Assay: Kinetics of dissolution at 3 g/l and at 25° C. in water (adapalene solubilized, HPLC; pH of the solution at the end)
Type: physicochemical
Procedure: b) Kinetics of Dissolution at 3 g/l and at 25° C.
The chromatographic conditions and the concentrations of the control solutions are the same as those of the assay.
• Stirring: 15-position bench • Thermostated bath: 25° C. +/−2° C. verified on Prolabo PR 531 probe • HPLC Waters 2690-Detector 2487/2996 • Weighing out: Sartorius A200 balance • Dilutions: Eppendorf Research 1000, Eppendorf Research 5000, Gilson M1000 micropipette • Ultrapure water station: ELGA Operating conditions:
A test sample equivalent to 150 mg of Adapalene is introduced into a 100 ml Erlenmeyer flask. 50 ml of water are added. The mixture is stirred magnetically at 400 rpm or position 4 in a waterbath at 25° C. +/−2° C. A 2 ml sample is withdrawn at 15, 30, 60, 120 and 1140 minutes, while stirring magnetically. These withdrawn samples are filtered through 0.45 μm Gelman GHP Acrodisc polypropylene filters. The solution must be clear. The withdrawn samples are diluted by a factor “a” in the mobile phase, making it possible to have an Adapalene peak of surface area included between the surface areas of Control 1 and Control 5.
10 μl of each control solution are injected. A linear regression of the surface areas of the Adapalene peaks relative to the concentrations is performed.
10 μl of the solution to be examined are injected.
The area of the Adapalene peak in each solution to be examined is measured.
The concentration X in μg/ml is deduced therefrom according to the regression line of the controls.
The concentration in μg of Adapalene solubilized per ml is calculated with the formula: [Adapalene] in μg/ml=X×a
The variation in the amount dissolved in μg/ml as a function of time is represented on a graph.
At the end of dissolution, the appearance is immediately noted and the pH of the solution immediately measured.

pH of dissolution, 15 minutes (15 minutes): (5.7) | pH of dissolution, 7 days (7 days): (5.7) | Dissolution, 15 minutes (maturation temperature 85° C., 15 minutes): 0 µg/mL | Dissolution, 7 days (maturation temperature 85° C., 7 days): 0 µg/mL
SMILES: COc1ccc(-c2ccc3cc(C(=O)O)ccc3c2)cc1C12CC3CC(CC(C3)C1)C2 [Adapalene alone, 6-(3-(1-adamantyl)-4-methoxyphenyl)-2-naphthoic acid]
